Measured values: PMC5655689, “Therapeutic potential of the phosphino Cu(I) complex (HydroCuP) in the treatment of solid tumors” (Scientific Reports, 2017)

What was measured:
[1] = Tissue distribution of copper in LLC-bearing mice (GF-AAS); type: in vivo, mouse; conditions: single i.p. 50 mg/kg on day 10, 24 h
Description: To better understand the pharmacology and toxicology of the novel copper(I) complex, tissue samples, collected from LCC-bearing C57BL mice were analysed. […] On day 10 after tumor implantation, mice were treated with a single i.p. injection of 50 mg/kg of HydroCuP. After 24 hours, animals were sacrificed and copper content was quantified by graphite furnace atomic absorption spectroscopy (GF-AAS) analysis in several organs and normalized to control mice tissues. The solid tumor mass presented the highest copper concentration (at least 1.4 times higher than that detected in spleen), followed by spleen, kidney, liver and stomach.
Figure 3 Tissue distribution in LLC bearing C57BL mice. C57BL mice were inoculated i.m. on the right flank with LLC cells (2 × 10^6). After 10 days, HydroCuP was administered i.p. at a dose of 50 mg/kg. The mice were sacrificed after 24 hours and tumor, brain, spleen, kidney, intestine, liver and stomach were excised. Tissues were washed in ice-cold saline and weighed after removing excess fluid. All samples were mineralized in HNO3 and Cu content in each sample was measured by GF-AAS.
C57BL mice were inoculated […]. on the right flank with LLC cells (2 × 10^6). […] All samples were mineralized in HNO3 and Cu content in each sample was measured by GF-AAS (Graphite Furnace Atomic Absorption Spectroscopy).

[2] = test system: LoVo human colon cancer spheroids; assay: 3D spheroid cell viability, acid phosphatase (APH) assay, LoVo; type: cell-based; conditions: 72 h
Description: In order to improve the predictive capacity of the in vitro assays, we tested HydroCuP activity in two 3D cell cultures of human colon cancer cells, HCT-15 and LoVo. The colon cancer spheroids were treated with HydroCuP for 72 h and the cell viability was assessed by means of the acid phosphatase (APH) assay (Fig. 1, panel A).
Figure 1 Activity in 3D cell cultures. (A) Spheroids (2.5 × 10^3 cells/well) were treated for 72 h with increasing concentrations of tested compounds. The growth inhibitory effect was evaluated by means of APH test. IC50 values were calculated from the dose-survival curves by four parameter logistic model (P < 0.05). SD = standard deviation.
Spheroids were initiated in liquid overlay by seeding 2.5 × 10^3 HCT-15 and LoVo cells/well in phenol red-free RPMI-1640 medium (Sigma Chemical Co.), containing 10% FCS and supplemented with 20% methyl cellulose stock solution. A total of 150 μl of this cell suspension was transferred to each well of a round bottom non-tissue culture treated 96 well-plate (Greiner Bio-one, Kremsmünster, Austria) to allow spheroid formation within 72 h.
A modified APH assay, which is based on quantification of cytosolic acid phosphatase activity, was used for determining cell viability in spheroids. Briefly, the pre-seeded spheroids were treated with fresh medium containing the compound to be studied at the appropriate concentration (range 5–150 μM). Triplicate cultures were established for each treatment. After 72 h, each well was treated with 100 μL of the assay buffer (0.1 M sodium acetate, 0.1% Triton-X-100, supplemented with ImmunoPure p-nitrophenyl phosphate; Sigma Chemical Co.) and, following 3 h of incubation, 10 μL of 1 M NaOH solution were added. The inhibition of the cell growth induced by the tested complexes was detected by measuring the absorbance of each well at 405 nm, using a Bio-Rad 680 microplate reader. Mean absorbance for each drug dose was expressed as a percentage of the control untreated well absorbance (T/C) and plotted vs drug concentration. IC50 values, the drug concentrations that reduce the mean absorbance at 405 nm 50% of those in the untreated control wells, were calculated by four-parameter logistic (4-PL) model. Evaluation was based on means from at least four independent experiments.

26S proteasome = test system: 26S proteasome; design: method as in PMID 21388518; conditions: cited from earlier work
[3] = test system: LoVo colorectal oxaliplatin-sensitive xenograft; assay: In vivo activity toward LoVo (OXP-sensitive) tumor xenograft in BALB/c nu/nu mice; conditions: 30 mg/kg daily i.p. from day 14, day 30
Description: (§1) To this aim, we developed the OXP-sensitive and OXP-resistant LoVo xenografts in BALB/c nu/nu mice. […] OXP-sensitive or OXP-resistant LoVo cells (1 × 10^7) were injected in the flank of mice. Once tumor was established (tumor volumes of about 0.4 cm^3, around 14 days after tumor inoculation), mice were randomly divided into six groups (6 animals per group, 8 controls). The HydroCuP-treated groups (6 mice each group) received daily 30 mg/kg by i.p. injection and the OXP-treated group was given 2 mg/kg by i.p. injection. At day 30, animals were sacrificed, and the inhibition of tumor growth was determined (Fig. 4, panel A). Measurements of body weights were recorded from day 14 every 2 days until the experimental endpoint (Fig. 4, panel B).
(§2) (A) LoVo and LoVo-OXP tumor xenografts in 6-week-old BALB/c nu/nu mice by injecting 1 × 10^7 tumor cells subcutaneously on the left dorsal flank. After 24 h from tumor implantation, mice randomly divided into six groups (6 animals per group). Chemotherapy delayed until day 14 (tumor volumes of about 0.4 cm^3). From day 14, HydroCuP dosed daily at 30 mg/kg i.p., OXP dosed daily at 2 mg/kg i.p. At day 30, animals sacrificed, and the inhibition of tumor growth determined by comparing the volume of the control group and the treatment group expressed as percentage referred to the control animals. Error bars indicate the S.D. *p < 0.05, **p < 0.01, with respect to control. […] Body weight was measured every two days and was taken as a parameter of systemic toxicity. The error bars indicate the S.D. **P < 0.01; *P < 0.05.
(§3) LoVo and LoVo-OXP tumor xenografts were established in 6-week-old BALB/c nu/nu mice by injecting 1 × 10^7 tumor cells subcutaneously (100 μL in serum free medium) on the left dorsal flank. After 24 h from tumor implantation, mice were randomly divided into six groups (6 animals per group, 8 controls). Chemotherapy was delayed until the tumor was about 0.4 cm^3 (day 14). From day 14, HydroCuP was dosed daily at 30 mg/kg i.p. whereas OXP was dosed daily at 2 mg/kg i.p. Measurements of body weights and tumor volumes were recorded from day 14 every 2 days until the experimental endpoint. The long axis (L) and the short axis (S) were measured with callipers, and the tumor volume (V) was calculated using the following equation: V = SxSxL/2. At day 30, animals were sacrificed, and the inhibition of tumor growth was determined by comparing the volume of the control group and the treatment group expressed as percentage referred to the control animals.

[4] = design: method as in PMID 21388518, PMID 20486256; conditions: pH 7.4; cited from earlier work
[5] = test system: LoVo colorectal oxaliplatin-sensitive xenograft; conditions: mouse, in vivo, ip, 30 mg/kg
Description: as §1, §2, §3

[6] = Nephrotoxicity: urinary biomarkers (uTP, NAG) in Sprague Dawley rats; type: in vivo, rat; conditions: single i.p. HydroCuP 50 mg/kg vs CDDP 1.5 mg/kg
Description: Figure 5 Neurotoxicity studies. […] Bar: 500 µm. […] Nephrotoxicity studies. […] Error bars indicate the S.D. The potential nephrotoxic effect of HydroCuP was evaluated by measuring some specific biomarkers in urines obtained from 8-week-old male Sprague Dawley rats treated with a single i.p. injection of HydroCuP and CDDP. Urines of the treated animals were collected after 24, 72 and 120 h, and urinary total protein (uTP) and N-acetyl-β-D-glucosaminidase (NAG) were evaluated as signs of nephrotoxicity. […] On the contrary, treatment with HydroCuP determined a 24 h excretion of uTP roughly 12 times lower than that recorded with CDDP (Fig. 5, panel D). Following 120 h, the levels of uTP excreted by HydroCuP were 11 times lower compared with the reference metallodrug. Eight-week-old male Sprague Dawley rats were randomly allocated to five groups (five animals per group) and treated with a single i.p. injection of HydroCuP (50 mg/kg) or the vehicle solution (0.2 mL saline solution, control). Cisplatin (1.5 mg/kg,) was also used under the same experimental conditions for comparison purposes. […] Later, urines were centrifuged (150 g for 10 minutes at room temperature) to discard debris and aliquoted to measure creatinine, uTP and NAG. Urine creatinine assays were performed using creatinine assay kit from Sigma Chemical Co. (St. Louis, MO). uTPs were measured by means of BioRad Total Protein Test (Hercules, CA). Urinary NAG was measured spectrophotometrically with the NAG kit (Roche diagnostics, Basel, Switzerland) according to the manufacturer’s protocols. uTP and NAG are expressed as grams per millimoles of creatinine (g mmol^−1 creatinine).

F[P-](F)(F)(F)(F)F.OC[P+](CO)(CO)[Cu-3]([P+](CO)(CO)CO)([P+](CO)(CO)CO)[P+](CO)(CO)CO [HydroCuP, [Cu(thp)4][PF6]]
Copper content in brain with respect to control animals [1]: no enhance in copper content was detectable in brain | Copper concentration in tumor mass, times higher than in spleen ([1]; normalized to control mice tissues): at least 1.4 | IC50 fold lower than CDDP [2]: about 2.5 | IC50 ([2]; APH test, read-out: IC50 (μM) ± SD LoVo): 23.3 ± 3.2 µM | Effect on CT-L, T-L and C-L catalytic activities of 26S proteasome (26S proteasome): inhibit chymotrypsin-like (CT-L), trypsin-like (T-L) and caspase-like (C-L) catalytic activities of 26S proteasome | Inhibition of tumor growth (decrease in final tumor volume) [3]: about 65% | Water solubility [4]: > 2000 µg/mL | Body weight and health vs control group [5]: No significant difference in body weight | NAG activity, times lower than CDDP ([6]; urine 24, 72, 120 h): up to 12 | 24 h excretion of uTP, times lower than CDDP ([6]; urine 24 h): roughly 12 | uTP excreted, times lower than CDDP ([6]; urine 120 h): 11
